Measurements reported in patent US5242926A, “Therapeutic composition for treating hyperthyroidism” (priority 1992, dated 1993).
Entries after “also recorded” stand apart in the source; their conditions may differ.

What was measured:
[1] = tested on: TSH, T3, T4, FT3 and FT4 in bloods; assay: Effect of PBT and THP on serum TSH, T3, T4, FT3, FT4, normal rats (Experiment 3); type: in vivo, female Sprague-Dawley rats
Experimental: The female Sprague-Dawley rats, each weights 270±15 grams, are divided into 5 groups of 6 rats, for following daily treatment for continuous 10 days, except a normal group for control.
On the eleventh days, each rat is injected (I.P.) with pentobarbital 50 mg/kg and narcotized for extracting arterial blood which is settled for 2 hours at room temperature and centrifuged at 2500 rpm for 10 minutes to separate the serum. The concentrations of TSH, T3, T4, FT3 and FT4 in bloods are analyzed by RIA methods. The normal control group is treated with saline and analyzed by the same methods.

[2] = tested on: hyperthyroidism in rats (TSH, T3, T4, FT3 and FT4 in the bloods); assay: Effect of PBT and THP on serum TSH, T3, T4, FT3, FT4, L-T4 induced hyperthyroidism rats (Experiment 3); type: in vivo, female Sprague-Dawley rats
Experimental: (§1) The female Sprague-Dawley rats, each weighs 260±15 grams, are divided into 5 groups of 6 rats, each rat being subcutaneously injected (s.c.) with L-T4 300 μg/kg daily for continuous 12 days to induce hyperthyroidism in each rats. […] The control group is treted with saline. After continuous treatment of 10 days as described above, each rat is injected (I.P.) with pentobarbitol 50 mg/kg and narcotized on the eleventh day, and then extracted the arterial blood for measuring concentrations of TSH, T3, T4, FT3 and FT4 in the bloods.

[3] = tested on: thyroid function of normal rats; assay: Effect of dl-tetrahydropalmatine (THP) on thyroid function of normal rats (Experiment 4)
Experimental: (§2) On the 15th day, each rat is intraperitoneally injected with pentobarbital 50 mg/kg and narcotized. The rat abdominal cavity is cut to take the thyroid out for weighing and for examining pathological section, which is stained with H-E stain to facilitate observation of pathologic changes.
The method of experiment 1 is repeated by daily treating dl-tetrahydropalmatine (THP) 2.5 mg/kg, 5.0 mg/kg and 10 mg/kg (I.P.) respectively for continuous 14 days.

[4] = tested on: blood cholesterol and triglyceride in rats; assay: Effects of THP on blood cholesterol, triglyceride and T4 in L-T4 induced hyperthyroidism rats (Experiment 5); type: in vivo, rats (Sprague-Dawley); details: 10 days
Experimental: as §1

[5] = tested on: blood cholesterol and triglyceride in rats; assay: as above; type: in vivo, rats (Sprague-Dawley); details: 10 days; remark: listed apart in the source
rat thyroid = assay: Effect of each extracted layer of Corydalis on rat thyroid: body and thyroid weight, normal rats (Experiment 1); details: 50 mg/kg daily p.o., 14 days, vs control
Experimental: ICR mice may be used as testing animals in this invention, each having a weight of 18-25 grams. Sprague-Dawley rats each having a weight of 240±10 grams may also be used in this invention.
The mice or rats are placed in a metal cage by feeding 5 mice per group in each cage with solid foods and distilled water at least 1 week before performing the experiment at […] and humidity of 55±5%.
as §2

thyroid follicle cells = assay: Thyroid pathological section, H-E stain, normal rats (Experiment 1); type: in vivo, female Sprague-Dawley rats; details: 50 mg/kg daily p.o., 14 days
[6] = tested on: hyperthyroidism in rats (TSH, T3, T4, free T3 and free T4 in the serum); assay: Serum TSH, T3, T4, FT3, FT4 by RIA, L-T4 induced hyperthyroidism rats (Experiment 2); type: in vivo, female Sprague-Dawley rats
Experimental: The female Sprague-Dawley rats each having a weight of 250±10 grams are subcutaneously injected (S.C.) for 12 days with a daily dose of 300 μg/kg for each rat to induce hyperthyroidism. […] Then, the rat abdominal cavity is cut to extract arterial blood which is settled for 2 hours at room temperature and is centrifuged at 2500 rpm for 10 minutes for separating the serum.
The concentrations of TSH, T3, T4, free T3 and free T4 in the serum by RIA methods.

[7] = tested on: rat thyroid, pituitary and suprarenal gland; assay: Effect of THP on rat thyroid, pituitary and suprarenal gland weight (Experiment 6); type: in vivo, rats (Sprague-Dawley); details: PTU, 14 days
[8] = THP 50 mg/kg [sic], i.p., 10 days
[9] = L-T4 induced hyperthyroidism rats, THP 5 mg/kg i.p., 10 days
[10] = hyperthyroidism rats, THP 5 mg/kg, I.P.
[11] = hyperthyroidism rats, THP 2.5 mg/kg i.p.
[12] = hyperthyroidism rats, THP 5 mg/kg i.p.
[13] = hyperthyroidism rats, THP 10.0 mg/kg i.p.
[14] = L-T4 induced hyperthyroidism rats, PTU 5 mg/kg p.o., 10 days
[15] = hyperthyroidism rats, PTU 5.0 mg/kg

## COc1cc2c(cc1OC)C1Cc3ccc(OC)c(OC)c3CN1CC2 (racemic) [THP, dl-tetrahydropalmatine]
[1]; [8]
  FT3: 1.18 ± 0.01 ng/dL
  FT4: 1.97 ± 0.14 ng/dL
  T3: 49.05 ± 2.45 µg/dL
  T4: 2.32 ± 0.25 µg/dL
  TSH: 1.89 ± 0.13 μu/ml
[2]; [9]
  FT3: 1.42 ± 0.62 ng/dL
  FT4: 5.27 ± 1.05 ng/dL
  T3: 42.36 ± 4.25 ng/dL
  T4: 4.91 ± 0.17 µg/dL
  TSH: 0.77 ± 0.10 μu/ml
[2]; hyperthyroidism rats
  effect on T3, T4, FT3 and FT4 (in words, summary): may markedly decrease the concentration of T3, T4, FT3 and FT4
  effect on TSH (in words, summary): will not influence the TSH concentration in the blood
[2]; [10]
  effect on T3, T4, FT3 and FT4 (in words): will greatly reduce T3 (P<0.01), T4 (P<0.05), FT3 (P<0.01) and FT4 (P<0.01)
  effect on TSH (in words): no remarkable influence on TSH concentration
[2]; hyperthyroidism rats, THP dosage much smaller than PBT dose
  pharmacological effect relative to PBT (in words): not less than that of the PBT
[3]; THP 2.5 mg/kg i.p., 14 days
  FT3: 1.3 ± 0.1 ng/dL
  FT4: 1.7 ± 0.5 ng/dL
  T3: 56.8 ± 3.1 ng/dL
  T4: 2.3 ± 0.5 µg/dL
  TSH: 1.9 ± 0.1 μu/ml
[3]; THP 5.0 mg/kg i.p., 14 days
  FT3: 1.2 ± 0.2 ng/dL
  FT4: 2.1 ± 0.2 ng/dL
  T3: 58.8 ± 3.7 ng/dL
  T4: 2.5 ± 0.2 µg/dL
  TSH: 2.5 ± 0.4 μu/ml
[3]; THP 10.0 mg/kg i.p., 14 days
  FT4: 1.9 ± 1.5 ng/dL
  T3: 49.1 ± 2.5 ng/dL
  T4: 2.3 ± 0.3 µg/dL
  TSH: 1.9 ± 0.1 μu/ml
[3]; THP 2.5, 5.0 and 10 mg/kg i.p., 14 days
  effect on T3, T4, FT3, FT4 and TSH (in words): no influence on the concentrations of T3, T4, FT3, FT4 and TSH
[4]; THP 2.5 mg/kg i.p.
  T4: 3.3 ± 0.4 µg/dL
[4]; THP 5 mg/kg i.p.
  T4: 3.1 ± 0.5 µg/dL
[4]; THP 10.0 mg/kg i.p.
  T4: 3.2 ± 0.5 µg/dL
[5]; THP i.p.
  effect on cholesterol compared with PTU (in words): increases the cholesterol by a much smaller amount than PTU
[5]; [11]
  Cholesterol: 57.5 ± 3.5 mg/dL
  Triglyceride: 29.5 ± 3.5 mg/dL
[5]; [12]
  Cholesterol: 58.5 ± 3.4 mg/dL
  Triglyceride: 31.1 ± 5.4 mg/dL
[5]; [13]
  Cholesterol: 56.5 ± 4.6 mg/dL
  Triglyceride: 30.6 ± 5.1 mg/dL
[5]; hyperthyroidism rats, THP i.p.
  effect on triglyceride compared with PTU (in words): may reduce the triglyceride of the hyperthyroidism rats to be superior to PTU

## CCCc1cc(=O)[nH]c(=S)[nH]1 [PTU, propylthiouracil]
Rat thyroid
  changes in thyroid weight (in words): clearly shows an increase thyroid weight (P<0.001); also recorded: may increase thyroid weight
Thyroid follicle cells
  pathologic section of the thyroid (in words): remarkable expansion of the thyroid follicle cells and their colloidal loss; also recorded: will cause the formation of follicle cells, and loss of colloid
[6]; PTU 5 mg/kg
  effect on T3, T4, FT3 and FT4 (in words): may remarkably reduce the concentrations of T3 (P <0.001), T4 (P<0.001), FT3 (P<0.01) and FT4 (P<0.001)
  effect on TSH (in words): remarkably increase TSH (P<0.01)
[6]; PTU 5 mg/kg p.o.
  FT3: 0.44 ± 0.02 ng/dL
  FT4: 0.47 ± 0.04 ng/dL
  T3: 17.92 ± 1.43 ng/dL
  T4: 1.11 ± 0.02 µg/dL
  TSH: 3.98 ± 0.40 µg/mL
[1]; PTU 5 mg/kg P.O.
  effect on T3, T4, FT3 and FT4 (in words): will remarkably reduce T3 (P<0.001), T4 (P<0.001), FT3 (P<0.001) and FT4 (P<0.001)
[1]; PTU 5 mg/kg P.O., increase from 2.28±0.16 μu/ml, P<0.001
  TSH: 4.54±0.01 μm/ml
[1]; PTU 5 mg/kg p.o., 10 days
  FT3: 0.37 ± 0.10 ng/dL
  FT4: 0.35 ± 0.09 ng/dL
  T3: 31.77 ± 3.10 µg/dL
  T4: 0.92 ± 0.14 µg/dL
  TSH: 4.54 ± 0.41 μu/ml
[2]; [14]
  FT3: 2.01 ± 0.25 ng/dL
  FT4: 3.24 ± 0.98 ng/dL
  T3: 30.25 ± 3.25 ng/dL
  T4: 1.95 ± 0.25 µg/dL
  TSH: 3.98 ± 0.51 μu/ml
[2]; hyperthyroidism rats, PTU 5 mg/kg, P.O.
  effect on T3, T4, FT3 and FT4 (in words): may decrease the T3 (P<0.001), T4 (P<0.001), FT3 (P<0.001) and FT4 (P<0.001)
[2]; hyperthyroidism rats, PTU 5 mg/kg, P.O., increase from 0.99±0.11, P<0.001
  TSH: 3.98 ± 0.51 µg/mL
[3]; PTU
  effect on T3, T4, FT3 and FT4 (in words): reduces the T3, T4, FT3 and FT4
  effect on TSH (in words): increases the TSH concentration
  effect on thyroid follicle cells and colloid (in words): expand thyroid follicle cells and cause colloidal loss
[3]; PTU 5.0 mg/kg
  FT3: 0.4 ± 0.1 ng/dL
  FT4: 0.4 ± 0.1 ng/dL
  T3: 31.8 ± 3.1 ng/dL
  T4: 0.9 ± 0.1 µg/dL
  TSH: 4.5 ± 0.4 μu/ml
[7]
  effect on follicle cells and colloid (in words): expansion of follicle cells and colloidal loss
  effect on thyroid weight (in words): increase of thyroid weight
[5]; [15]
  Cholesterol: 73.9 ± 3.2 mg/dL
  T4: 1.2 ± 0.2 µg/dL
  Triglyceride: 35.6 ± 3.2 mg/dL
